pIC50: −log10 of the molar value.
Experiments:
Type in all cases: biochemical
[1] = molecular target: JAK1 (Homo sapiens (Human), UniProt P23458); test: JAK enzymatic assay (peptide mobility shift), JAK1; conditions: recombinant JAK1 20 nM, IRS-1 peptide, 240 minutes
Description: (§1) Recombinant JAK1 (Catalog Number PV4775), JAK2 (Catalog Number PV4210) and JAK3 (Catalog Number PV3855) were purchased from (Invitrogen Corporation, Madison, Wis.). […] Adenosine 5′-triphosphate (ATP) was obtained from (Sigma Chemical Company, St. Louis, Mo.). […] Coating Reagent 3 was purchased from (Caliper Life Sciences, Hopkinton, Mass.).
(§2) Compounds were diluted serially in 100% dimethyl sulfoxide and tested in an 11 point dose response in duplicate or quadruplicate (200 nl of compound/DMSO was added per 10 L reaction). […] The assay was run for 240 minutes for JAK1, 150 minutes for JAK2, 90 minutes for JAK3 and 70 minutes for Tyk2. […] The plates were placed on a LabChip 3000 (LC3000) instrument from (Caliper Life Sciences) to measure the formation of phosphorylated peptide. Data was analyzed using Hits Well Analyzer Software from (Caliper Life Sciences) to obtain the amount of product formed.
(§3) Data was then imported into an internal application where each data point is expressed as % inhibition based on uninhibited and no enzyme controls. Dose-response data is then fit using a 4 parameter logistic equation (Equation 1) to determine an IC50.

[2] = molecular target: JAK3 (Homo sapiens (Human), UniProt P52333); test: JAK enzymatic assay (peptide mobility shift), JAK3; conditions: recombinant JAK3 1 nM, JAKtide peptide, 90 minutes
Chain of JAK3 (P52333 781-1124): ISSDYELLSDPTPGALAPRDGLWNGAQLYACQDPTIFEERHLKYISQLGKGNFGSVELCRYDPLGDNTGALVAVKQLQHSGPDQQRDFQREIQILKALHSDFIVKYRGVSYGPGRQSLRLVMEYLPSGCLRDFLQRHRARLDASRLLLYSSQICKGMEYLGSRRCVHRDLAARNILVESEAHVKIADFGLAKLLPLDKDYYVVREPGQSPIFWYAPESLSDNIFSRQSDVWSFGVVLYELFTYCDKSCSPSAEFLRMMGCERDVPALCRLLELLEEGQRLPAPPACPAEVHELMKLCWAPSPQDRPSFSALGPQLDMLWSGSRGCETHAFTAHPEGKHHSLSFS
Description: as §1, §2, §3

[3] = molecular target: JAK2 (Homo sapiens (Human), UniProt O60674); test: JAK enzymatic assay (peptide mobility shift), JAK2; conditions: recombinant JAK2 2 nM, JAKtide peptide, 150 minutes
Chain of JAK2 (O60674 808-1132): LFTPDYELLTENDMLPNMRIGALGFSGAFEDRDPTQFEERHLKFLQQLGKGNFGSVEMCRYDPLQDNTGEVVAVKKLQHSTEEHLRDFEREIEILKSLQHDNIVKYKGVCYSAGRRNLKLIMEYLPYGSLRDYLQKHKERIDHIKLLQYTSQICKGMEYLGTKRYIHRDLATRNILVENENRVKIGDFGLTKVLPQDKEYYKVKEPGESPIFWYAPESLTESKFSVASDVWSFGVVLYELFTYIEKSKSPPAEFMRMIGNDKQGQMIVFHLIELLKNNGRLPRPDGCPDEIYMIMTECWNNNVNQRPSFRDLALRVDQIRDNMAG
Excerpt: Recombinant JAK1 (Catalog Number PV4775), JAK2 (Catalog Number PV4210) and JAK3 (Catalog Number PV3855) were purchased from (Invitrogen Corporation, Madison, Wis.). Tyk2 (His-Tyk2 (888-1182, C936S, C1142S)) used in this study was expressed and purified at Pfizer Laboratories. Adenosine 5′-triphosphate (ATP) was obtained from (Sigma Chemical Company, St. Louis, Mo.). […] Coating Reagent 3 was purchased from (Caliper Life Sciences, Hopkinton, Mass.).
A peptide mobility shift assay was used to quantify the phosphorylation of the JAKtide (JAK2 and JAK3) or the IRS-1 peptide (JAK1 and Tyk2). Reactions were carried out in a 384-well plate (Matrical MP-101) in a 10 L total volume. […] Compounds were diluted serially in 100% dimethyl sulfoxide and tested in an 11 point dose response in duplicate or quadruplicate (200 nl of compound/DMSO was added per 10 L reaction). The reactions were initiated by the addition of enzyme to the final concentration of 2 nM JAK2, 1 nM JAK3, 12 nM Tyk2 or 20 nM JAK1. The assay was run for 240 minutes for JAK1, 150 minutes for JAK2, 90 minutes for JAK3 and 70 minutes for Tyk2. The assays were stopped at the specified times with 20 uL of 140 mM HEPES, 22.5 mM EDTA and 0.15% Coating Reagent 3. The plates were placed on a LabChip 3000 (LC3000) instrument from (Caliper Life Sciences) to measure the formation of phosphorylated peptide. Data was analyzed using Hits Well Analyzer Software from (Caliper Life Sciences) to obtain the amount of product formed.
as §3

Chain of JAK1 (P23458 whole entry): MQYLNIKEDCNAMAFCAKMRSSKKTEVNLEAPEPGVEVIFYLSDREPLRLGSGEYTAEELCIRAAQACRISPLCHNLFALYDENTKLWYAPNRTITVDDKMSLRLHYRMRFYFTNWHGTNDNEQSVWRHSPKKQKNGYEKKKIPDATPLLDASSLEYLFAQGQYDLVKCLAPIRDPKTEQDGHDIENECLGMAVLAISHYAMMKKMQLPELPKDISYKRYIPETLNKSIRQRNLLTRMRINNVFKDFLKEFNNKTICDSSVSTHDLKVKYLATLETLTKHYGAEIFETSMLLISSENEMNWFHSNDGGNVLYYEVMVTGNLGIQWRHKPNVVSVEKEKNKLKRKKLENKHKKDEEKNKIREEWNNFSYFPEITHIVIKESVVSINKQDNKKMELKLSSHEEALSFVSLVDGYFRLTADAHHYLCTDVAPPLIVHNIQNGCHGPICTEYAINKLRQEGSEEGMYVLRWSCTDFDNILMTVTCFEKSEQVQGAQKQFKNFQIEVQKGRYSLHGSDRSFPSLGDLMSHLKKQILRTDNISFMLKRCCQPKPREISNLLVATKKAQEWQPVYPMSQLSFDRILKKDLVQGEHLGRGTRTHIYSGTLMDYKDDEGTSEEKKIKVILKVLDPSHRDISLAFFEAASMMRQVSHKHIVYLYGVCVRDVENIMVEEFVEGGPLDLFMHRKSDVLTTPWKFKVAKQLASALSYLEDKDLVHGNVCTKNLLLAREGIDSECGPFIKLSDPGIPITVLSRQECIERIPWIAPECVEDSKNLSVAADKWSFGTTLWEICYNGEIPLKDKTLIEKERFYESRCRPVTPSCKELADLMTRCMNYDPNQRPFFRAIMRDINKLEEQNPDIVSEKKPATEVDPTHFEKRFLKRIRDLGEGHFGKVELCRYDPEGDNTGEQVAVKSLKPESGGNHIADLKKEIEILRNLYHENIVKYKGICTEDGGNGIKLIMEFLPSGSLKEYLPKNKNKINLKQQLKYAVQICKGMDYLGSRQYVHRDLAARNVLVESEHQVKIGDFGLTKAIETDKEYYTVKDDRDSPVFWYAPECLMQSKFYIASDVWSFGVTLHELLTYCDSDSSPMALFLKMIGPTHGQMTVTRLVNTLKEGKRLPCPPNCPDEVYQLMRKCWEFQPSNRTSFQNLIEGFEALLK

Row | Structure (SMILES) | pIC50 [1] | pIC50 [2] | pIC50 [3]
1 | CCOC1CCCN(S(=O)(=O)CC2CCC(N(C)c3ncnc4[nH]ccc34)CC2)C1 (stereo not drawn) [Example 3, N-(trans-4-{[(3-ethoxypiperidin-1-yl)sulfonyl]methyl}cyclo-hexyl)-N-methyl-7H-pyrrolo[2,3-d]pyrimidin-4-amine] | 8.92 | 7.50 | 8.39
2 | CCC1(NC(=O)OCc2ccccc2)CCCN(S(=O)(=O)C[C@H]2CC[C@H](N(C)c3ncnc4[nH]ccc34)CC2)C1 (stereo partly drawn) [Example 4, benzyl {3-ethyl-1-[({trans-4-[methyl(7H-pyrrolo[2,3-d]pyrimidin-4-yl)amino]cyclohexyl}methyl)-sulfonyl]piperidin-3-yl}carbamate] | 7.35 | 6.07 | 7.14
3 | CC(=O)C1CCCN(S(=O)(=O)C[C@H]2CC[C@H](N(C)c3ncnc4[nH]ccc34)CC2)C1 (stereo partly drawn) [Example 5, 1-{1-[({trans-4-[methyl(7H-pyrrolo[2,3-d]pyrimidin-4-yl)amino]-cyclohexyl}methyl)sulfonyl]-piperidin-3-yl}ethanone] | 8.15 | 6.47 | 7.66
4 | CN(c1ncnc2[nH]ccc12)[C@H]1CC[C@H](CS(=O)(=O)N2CCCC(C(F)(F)F)C2)CC1 (stereo partly drawn) [Example 6, N-methyl-N-[trans-4-({[3-(trifluoromethyl)piperidin-1-yl]sulfonyl}methyl)-cyclohexyl]-7H-pyrrolo[2,3-d]pyrimidin-4-amine] | 8.14 | 6.22 | 7.27
5 | CN(c1ncnc2[nH]ccc12)[C@H]1CC[C@H](CS(=O)(=O)N2CCCC(OCC(N)=O)C2)CC1 (stereo partly drawn) [Example 7, 2-({1-[({trans-4-[methyl-(7H-pyrrolo[2,3-d]-pyrimidin-4-yl)amino]-cyclohexyl}methyl)sulfonyl]-piperidin-3-yl}oxy)-acetamide] | 8.53 | 6.76 | 7.74
6 | CN(c1ncnc2[nH]ccc12)[C@H]1CC[C@H](CS(=O)(=O)N2CCC(O)CC2)CC1 [Example 9, 1-[({trans-4-[methyl(7H-pyrrolo[2,3-d]pyrimidin-4-yl)amino]cyclohexyl}methyl)-sulfonyl]piperidin-4-ol] | 8.04 | 6.47 | 7.47
7 | CN(c1ncnc2[nH]ccc12)[C@H]1CC[C@H](CS(=O)(=O)N2CCCC(F)C2)CC1 (stereo partly drawn) [Example 10, N-(trans-4-{[(3-fluoro-piperidin-1-yl)sulfonyl]-methyl}cyclohexyl)-N-methyl-7H-pyrrolo[2,3-d]-pyrimidin-4-amine] | 8.28 | 6.63 | 7.58
8 | CN(c1ncnc2[nH]ccc12)[C@H]1CC[C@H](CS(=O)(=O)N2CC[C@@H](O)[C@H](O)C2)CC1 [Example 12, (3R,4R)-1-[({trans-4-[methyl(7H-pyrrolo[2,3-d]pyrimidin-4-yl)amino]-cyclohexyl}methyl)sulfonyl]-piperidine-3,4-diol] | 8.37 | 6.92 | 7.93
9 | CN(c1ncnc2[nH]ccc12)[C@H]1CC[C@H](CS(=O)(=O)N2CC[C@@H](O)[C@@H](O)C2)CC1 [Example 13, (3S,4R)-1-[({trans-4-[methyl(7H-pyrrolo[2,3-d]pyrimidin-4-yl)amino]-cyclohexyl}methyl)sulfonyl]-piperidine-3,4-diol] | 8.16 | 6.56 | 7.49
10 | CN(c1ncnc2[nH]ccc12)[C@H]1CC[C@H](CS(=O)(=O)N2CCC[C@H](O)C2)CC1 [Example 14, (3S)-1-[({trans-4-[methyl-(7H-pyrrolo[2,3-d]-pyrimidin-4-yl)amino]-cyclohexyl}methyl)sulfonyl]-piperidin-3-ol] | 8.27 | 6.77 | 7.79
11 | CN(c1ncnc2[nH]ccc12)[C@H]1CC[C@H](CS(=O)(=O)N2CCCC(COc3ccc(F)cc3)C2)CC1 (stereo partly drawn) [Example 15, N-{trans-4-[({3-[(4-fluoro-phenoxy)methyl]piperidin-1-yl}sulfonyl)methyl]-cyclohexyl}-N-methyl-7H-pyrrolo[2,3-d]pyrimidin-4-amine] | 8.23 | 5.00 | 7.49
12 | CN(c1ncnc2[nH]ccc12)[C@H]1CC[C@H](CS(=O)(=O)N2CCCC(C(=O)O)C2)CC1 (stereo partly drawn) [Example 16, 1-[({trans-4-[methyl(7H-pyrrolo[2,3-d]pyrimidin-4-yl)amino]cyclohexyl}methyl)-sulfonyl]piperidine-3-carboxylic acid] | 8.67 | 7.13 | 8.11
13 | CCCS(=O)(=O)CC1CCCN(S(=O)(=O)C[C@H]2CC[C@H](N(C)c3ncnc4[nH]ccc34)CC2)C1 (stereo partly drawn) [Example 17, N-methyl-N-{trans-4-[({3-[(propylsulfonyl)methyl]-piperidin-1-yl}sulfonyl)-methyl]-cyclohexyl}-7H-pyrrolo[2,3-d]pyrimidin-4-amine] | 8.22 | 6.13 | 7.26
14 | Cc1nnc(C2CCCN(S(=O)(=O)C[C@H]3CC[C@H](N(C)c4ncnc5[nH]ccc45)CC3)C2)o1 (stereo partly drawn) [Example 18, N-methyl-N-[trans-4-({[3-(5-methyl-1,3,4-oxadiazol-2-yl)piperidin-1-yl]sulfonyl}methyl)-cyclohexyl]-7H-pyrrolo-[2,3-d]pyrimidin-4-amine] | 8.01 | 6.68 | 7.71
15 | CN(c1ncnc2[nH]ccc12)[C@H]1CC[C@H](CS(=O)(=O)N2CCCC(O)(COc3cccc(F)c3)C2)CC1 (stereo partly drawn) [Example 19, 3-[(3-fluorophenoxy)-methyl]-1-[({trans-4-[methyl(7H-pyrrolo[2,3-d]pyrimidin-4-yl)amino]-cyclohexyl}methyl)sulfonyl]-piperidin-3-ol] | 7.83 | 6.31 | 7.33
16 | CC(=O)NCC1CCCN(S(=O)(=O)C[C@H]2CC[C@H](N(C)c3ncnc4[nH]ccc34)CC2)C1 (stereo partly drawn) [Example 20, N-({1-[({trans-4-[methyl-(7H-pyrrolo[2,3-d]-pyrimidin-4-yl)amino]-cyclohexyl}methyl)sulfonyl]-piperidin-3-yl}methyl)-acetamide] | 8.78 | 6.72 | 7.82
17 | CCOCCO[C@@H]1CCN(S(=O)(=O)C[C@H]2CC[C@H](N(C)c3ncnc4[nH]ccc34)CC2)C1 [Example 28, N-[trans-4-({[(3R)-3-(2-ethoxyethoxy)pyrrolidin-1-yl]sulfonyl}methyl)-cyclohexyl]-N-methyl-7H-pyrrolo[2,3-d]pyrimidin-4-amine] | 8.20 |  | 7.77
18 | C[C@@H]1C[C@@H](CS(=O)(=O)N2CCC(CO)CC2)CC[C@@H]1N(C)c1ncnc2[nH]ccc12 [Example 130, {1-[({(1S,3R,4S)-3-methyl-4-[methyl(7H-pyrrolo[2,3-d]pyrimidin-4-yl)amino]cyclohexyl}-methyl)sulfonyl]piperidin-4-yl}methanol] | 8.13 | 7.37 | 
19 | C[C@@H]1C[C@@H](CS(=O)(=O)N2CC[C@@H](CO)C2)CC[C@@H]1N(C)c1ncnc2[nH]ccc12 [Example 132, {(3R)-1-[({(1S,3R,4S)-3-methyl-4-[methyl(7H-pyrrolo[2,3-d]pyrimidin-4-yl)amino]cyclohexyl}methyl)-sulfonyl]pyrrolidin-3-yl}methanol] | 8.19 | 7.29 | 
20 | CC1CC(CS(=O)(=O)N2CC[C@H](CO)C2)CCC1N(C)c1ncnc2[nH]ccc12 (stereo partly drawn) [Example 133, ((3S)-1-((3-methyl-4-(methyl(7H-pyrrolo[2,3-d]pyrimidin-4-yl)amino)cyclohexyl)methylsulfonyl)pyrrolidin-3-yl)methanol] | 11.29 | 10.38 | 
21 | CN(c1ncnc2[nH]ccc12)[C@H]1CC[C@H](CS(=O)(=O)N2CCC(C)(O)C2)CC1 (stereo partly drawn) [Example 137, 3-methyl-1-[({trans-4-[methyl(7H-pyrrolo[2,3-d]pyrimidin-4-yl)amino]cyclohexyl}methyl)sulfonyl]pyrrolidin-3-ol] | 11.11 | 9.52 | 

From patent US8633206B2, “Pyrrolo[2,3-D]pyrimidine compounds” (Pfizer Inc., priority 2009, dated 2014)
